The record followed here is US12509446B2, “FYN and VEGFR2 kinase inhibitors” (ROTTAPHARM BIOTECH S.R.L., priority 2019, dated 2025).

In general, IC50 refers to the midpoint of a concentration-inhibition curve.

Like-named read-outs stand apart in the source and are kept apart here.

One assay deals with NF-kB. Put plainly: Gene reporter (GR) assay, NF-kB activation after TNFα in JB6 Cl 41-5a (P+) cells. In kind it is cell-based, murine. Details: key to Gene reporter (GR) inhibition, no effect: ne: no effect. As to conditions: for inhibition at 3 µM / inhibition at 10 µM: read-out: Gene reporter (GR) inhibition % effect at max concentration; for IC50: TNFα 2 ng/ml, non toxic concentrations, read-out: Gene reporter (GR) inhibition IC50. The text has this:
To determine if the compounds of the invention were active also in a cellular model, a gene reporter assay was established in a cell line (JB6 Cl 41-5a (P+)) know to activate Fyn kinase via an inflammatory stimuli (TNFα). GR assay measures the activation of the nuclear transcription factor NF-kB, situated down-stream the Fyn activation pathway. Products active in this analysis has to penetrate in the cell and inhibit the activation pathway of NF-kB.
The murine epithelial cell line JB6 Cl 41-5a (P+) (ATCC® Cat. #CRL-2010) was stably transfected with the pGL4.32[luc2P/NFkB-RE/Hygro] vector (Promega). Clonal selection was achieved by limiting with 80 μg/ml Hygromycin B. The clones were tested for their response to TNFα stimulus.
JB6(P+) NFkB-RE-luc2P transfected cells were used for the analysis of NF-kB activity modulation, after TNFα stimulation, by Fyn-inhibitors.
Cells were pre-treated with the different compounds for 1 h and then stimulated with 2 ng/ml TNFα for 4 h. Each tested condition was analyzed in quadruplicate.
The luciferase analysis was performed with ONE-Glo™+ToxLuciferase Reporter and Cell Viability Assay kit (Promega).

A further assay concerns the target VEGFR2 (Homo sapiens (Human), UniProt P35968). Put plainly: In vitro VEGFR2 kinase activity assay (Eurofins Cerep). The class given is biochemical. As to conditions: read-out: VEGFR2 KINASE INHIBITION IC50. As for the experimental part:
The VEGFR2 kinase inhibitory activity of representative examples of compounds of Formula (I) assays was evaluated in Eurofins Cerep (France). The concentration range of the inhibitors under investigation was from 10^−8 M up to 10^−5 M final concentration. Some compounds were re-tested in a concentration-range starting from 10^−9 M. The results are expressed as a percent of control activity (in the absence of test compound) and the IC50 values were determined by non-linear regression analysis of the inhibition/concentration curves generated with mean replicate values.

A further assay addresses Fyn (Homo sapiens (Human), UniProt P06241). The assay is described as follows: Z′-LYTE in vitro Fyn kinase activity assay. The settings on record: ATP 50 μM; read-out: FYN KINASE INHIBITION IC50. In kind it is biochemical. The protocol: The Fyn kinase inhibitory activity of representative examples of compounds of Formula (1) was evaluated by Z′-LYTE™ Kinase Assay Platform (Invitrogen). Compounds were evaluated towards active Fyn (full length active, molecular weight 87.1 kDa; Invitrogen). […] Samples representing the 0% inhibition (or total enzymatic activity) were in the presence of compound diluent (1% DMSO final in Reaction Buffer 50 mMHepes, 10 mM MgCl2, 1 mM EGTA, 0.01% Brij-35, pH 7.5). The kinase reaction was carried out in a total volume of 10 μl, for 60 minutes at 25° C. The 0% Phosphorylation (i.e. no ATP) and 100% Phosphorylation Assay Controls, included in each plate, allowed to calculate the percent phosphorylation achieved in the specific reaction well. Results are expressed as percentage of inhibition and the IC50 values were calculated by non-linear curve fitting using GraphPad™ Prism software (version 6 for Windows).

Fyn, sequence (P06241 whole entry): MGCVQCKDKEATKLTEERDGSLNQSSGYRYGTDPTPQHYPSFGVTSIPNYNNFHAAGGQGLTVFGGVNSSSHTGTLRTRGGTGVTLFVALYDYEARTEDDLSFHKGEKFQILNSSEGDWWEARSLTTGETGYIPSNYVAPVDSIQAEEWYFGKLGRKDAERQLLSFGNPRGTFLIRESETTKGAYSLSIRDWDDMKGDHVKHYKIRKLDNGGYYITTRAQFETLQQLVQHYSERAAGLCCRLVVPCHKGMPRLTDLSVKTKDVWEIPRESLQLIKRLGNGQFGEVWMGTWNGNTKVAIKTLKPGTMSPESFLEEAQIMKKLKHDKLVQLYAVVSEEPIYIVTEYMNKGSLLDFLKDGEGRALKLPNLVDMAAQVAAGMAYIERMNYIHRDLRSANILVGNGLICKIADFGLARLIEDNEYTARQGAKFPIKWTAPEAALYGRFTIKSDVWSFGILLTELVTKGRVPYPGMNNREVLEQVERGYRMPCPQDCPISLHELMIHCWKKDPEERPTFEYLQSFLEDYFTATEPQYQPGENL
VEGFR2, sequence (P35968 20-1356): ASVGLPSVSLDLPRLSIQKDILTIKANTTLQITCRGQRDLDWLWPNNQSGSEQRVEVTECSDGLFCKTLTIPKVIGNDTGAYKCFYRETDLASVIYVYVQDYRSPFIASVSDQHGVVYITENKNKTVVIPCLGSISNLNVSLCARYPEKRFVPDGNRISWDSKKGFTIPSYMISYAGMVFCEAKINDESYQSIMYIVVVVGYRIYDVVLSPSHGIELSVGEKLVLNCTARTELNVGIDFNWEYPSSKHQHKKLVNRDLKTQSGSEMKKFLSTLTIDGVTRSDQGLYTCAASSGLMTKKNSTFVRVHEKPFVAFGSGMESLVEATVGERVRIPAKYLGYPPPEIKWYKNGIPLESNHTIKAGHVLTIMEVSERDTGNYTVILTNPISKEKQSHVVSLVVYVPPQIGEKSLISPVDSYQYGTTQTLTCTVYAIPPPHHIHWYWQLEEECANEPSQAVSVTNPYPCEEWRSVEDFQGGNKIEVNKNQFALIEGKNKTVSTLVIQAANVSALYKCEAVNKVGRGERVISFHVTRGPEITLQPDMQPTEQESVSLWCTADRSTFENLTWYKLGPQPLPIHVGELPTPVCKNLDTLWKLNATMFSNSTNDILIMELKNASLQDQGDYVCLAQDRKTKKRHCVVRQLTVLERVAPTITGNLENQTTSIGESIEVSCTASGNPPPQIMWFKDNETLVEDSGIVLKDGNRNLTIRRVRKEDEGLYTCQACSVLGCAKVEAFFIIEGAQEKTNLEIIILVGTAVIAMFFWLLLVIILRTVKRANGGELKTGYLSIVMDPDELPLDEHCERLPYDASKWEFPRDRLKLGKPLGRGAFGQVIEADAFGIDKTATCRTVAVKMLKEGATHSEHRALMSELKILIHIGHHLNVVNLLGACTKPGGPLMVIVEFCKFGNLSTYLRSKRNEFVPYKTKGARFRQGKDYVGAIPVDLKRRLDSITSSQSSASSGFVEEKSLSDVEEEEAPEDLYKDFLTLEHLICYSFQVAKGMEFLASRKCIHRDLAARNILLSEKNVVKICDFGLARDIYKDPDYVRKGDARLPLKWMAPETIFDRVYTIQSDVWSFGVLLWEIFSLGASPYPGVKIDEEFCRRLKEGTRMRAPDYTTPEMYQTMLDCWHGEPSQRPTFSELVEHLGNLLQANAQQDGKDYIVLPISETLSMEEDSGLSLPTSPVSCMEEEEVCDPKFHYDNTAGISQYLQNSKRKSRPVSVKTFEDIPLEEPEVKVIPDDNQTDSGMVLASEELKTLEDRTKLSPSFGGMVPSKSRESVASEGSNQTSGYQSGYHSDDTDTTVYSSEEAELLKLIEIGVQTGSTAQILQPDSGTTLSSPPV

With `Cc1nc(Nc2cc(CCc3cc(NC(=O)c4cccc(C(F)(F)F)c4)ccc3F)n[nH]2)cc(N2CCN(CCO)CC2)n1` [Compound 30, N-(4-fluoro-3-(2-(3-((6-(4-(2-hydroxyethyl)piperazin-1-yl)-2-methylpyrimidin-4-yl)amino)-1H-pyrazol-5-yl)ethyl)phenyl)-3-(trifluoromethyl) benzamide], the “Gene reporter (GR) inhibition, no effect” value with NF-kB was “ne”.
`Cc1nc(Nc2cc(CCc3cc(NC(=O)c4cccc(C(F)(F)F)c4)ccc3F)n[nH]2)cc(N2CC[C@H](N(C)C)C2)n1` [Compound 32, (S)-N-(3-(2-(3-((6-(3-(dimethylamino)pyrrolidin-1-yl)-2-methylpyrimidin-4-yl)amino)-1H-pyrazol-5-yl)ethyl)-4-fluorophenyl)-3-(trifluoromethyl)benzamide]: the IC50 on VEGFR2 was less than 0.01 µM; on Fyn it was 0.009 µM. In addition, in the assay with NF-kB (Mus musculus, JB6 Cl 41-5a), the inhibition at 3 µM came to 29%.
`O=C(Nc1ccc(F)c(CCc2cc(Nc3cc4c(cn3)CN(CCO)C4)[nH]n2)c1)c1cccc(C(F)(F)F)c1` [Compound 10, N-(4-fluoro-3-(2-(5-((2-(2-hydroxyethyl)-2,3-dihydro-1H-pyrrolo[3,4-c]pyridin-6-yl)amino)-1H-pyrazol-3-yl)ethyl)phenyl)-3-(trifluoromethyl) benzamide]: the IC50 is less than 0.01 µM on VEGFR2; 0.004 µM at Fyn; 2 µM in the assay on NF-kB (Mus musculus, JB6 Cl 41-5a).
As to `Cc1ccc(NC(=O)N2CCC3(CCC3)C2)cc1CCc1cc(Nc2nccnc2C)[nH]n1` [Compound 20, N-(4-methyl-3-(2-(5-((3-methylpyrazin-2-yl)amino)-1H-pyrazol-3-yl)ethyl)phenyl)-6-azaspiro[3.4]octane-6-carboxamide], on Fyn, the half-maximal inhibitory concentration (IC50) came out at 0.018 µM. Moreover, the inhibition at 3 µM in the assay on NF-kB (Mus musculus, JB6 Cl 41-5a) was 45%.
Regarding `Cc1nc(Nc2cc(CCc3ccc(F)c(NC(=O)c4cccc(C(F)(F)F)c4)c3)n[nH]2)cc(N2CCOCC2)n1` [Compound 43, N-(2-fluoro-5-(2-(5-((2-methyl-6-morpholinopyrimidin-4-yl)amino)-1H-pyrazol-3-yl)ethyl)phenyl)-3-(trifluoromethyl)benzamide], the IC50 on VEGFR2 stood at 0.01 µM; on Fyn, 0.019 µM; in the assay with NF-kB (Mus musculus, JB6 Cl 41-5a) it was 2.44 µM.
In the case of `CC(C)Cc1ccc(C(=O)Nc2ccc(F)c(CCc3cc(NC(=O)c4ncccn4)[nH]n3)c2)cn1` [Compound 9, N-(3-(2-fluoro-5-(6-isobutylnicotinamido)phenethyl)-1H-pyrazol-5-yl)pyrimidine-2-carboxamide], the IC50 on VEGFR2 was less than 0.01 µM; at Fyn, 0.016 µM. The inhibition at 10 µM with NF-kB (Mus musculus, JB6 Cl 41-5a) came to 47%.
In the case of `Cc1ccc(NC(=O)c2cc(C(C)(C)C#N)ccn2)cc1CCc1cc(Nc2cnccn2)[nH]n1` [Compound 41, 4-(2-cyanopropan-2-yl)-N-(4-methyl-3-(2-(5-(pyrazin-2-ylamino)-1H-pyrazol-3-yl)ethyl)phenyl)picolinamide], the IC50 was less than 0.01 µM at VEGFR2; 0.008 µM at Fyn; 0.327 µM with NF-kB (Mus musculus, JB6 Cl 41-5a).
Taken in the same sequence, the figures for `Cc1ccc(NC(=O)c2cccc(C(F)(F)F)c2)cc1CCc1cc(NC(=O)c2ccccn2)[nH]n1` [Compound 18, N-(5-(2-methyl-5-(3-(trifluoromethyl)benzamido)phenethyl)-1H-pyrazol-3-yl)picolinamide] were 0.016 µM, 0.015 µM and 0.974 µM.
In the case of `Cc1nc(C#N)cc(Nc2cc(CCc3cc(NC(=O)N4CCC5(CCCC5)CC4)ccc3C)n[nH]2)n1` [Compound 38, N-(3-(2-(5-((6-cyano-2-methylpyrimidin-4-yl)amino)-1H-pyrazol-3-yl)ethyl)-4-methylphenyl)-8-azaspiro [4.5] decane-8-carboxamide], the concentration for half-maximal inhibition (IC50) on Fyn was 0.002 µM. The inhibition at 10 µM in the assay with NF-kB (Mus musculus, JB6 Cl 41-5a) worked out at 25%.
Regarding `Cc1ccc(NC(=O)NC2CCC(C)(C)CC2)cc1CCc1cc(NC(=O)c2ccc(OC3CN(C(C)C)C3)cc2)[nH]n1` [Compound 23, N-(3-(5-(3-(4,4-dimethylcyclohexyl)ureido)-2-methylphenethyl)-1H-pyrazol-5-yl)-4-((1-isopropylazetidin-3-yl)oxy)benzamide], the IC50 came to 0.005 µM on Fyn and 1.44 µM in the assay with NF-kB (Mus musculus, JB6 Cl 41-5a).
Turning to `Cc1nc(Nc2cc(CCc3cc(NC(=O)c4cccc(C(F)(F)F)c4)ccc3F)n[nH]2)cc(N2CC(O)C2)n1` [Compound 31, N-(4-fluoro-3-(2-(3-((6-(3-hydroxyazetidin-1-yl)-2-methylpyrimidin-4-yl)amino)-1H-pyrazol-5-yl)ethyl)phenyl)-3-(trifluoromethyl)benzamide], in the assay with NF-kB (Mus musculus, JB6 Cl 41-5a), the inhibition at 10 µM was 47%.
On to `Cc1ccc(NC(=O)c2ccnc(C(C)(C)C#N)c2)cc1CCc1cc(Nc2ncccc2C)[nH]n1` [Compound 36, 2-(2-cyanopropan-2-yl)-N-(4-methyl-3-(2-(5-((3-methylpyridin-2-yl)amino)-1H-pyrazol-3-yl)ethyl)phenyl)isonicotinamide], for which the IC50 on VEGFR2 was less than 0.01 µM; at Fyn, 0.032 µM; in the assay with NF-kB (Mus musculus, JB6 Cl 41-5a) it was 0.494 µM.
For the compound `Cc1ccc(NC(=O)NC2CCC(C)(C)CC2)cc1CCc1cc(NC(=O)c2ccc(C3CCN(C)CC3)cc2)[nH]n1` [Compound 25, N-(3-(5-(3-(4,4-dimethylcyclohexyl)ureido)-2-methylphenethyl)-1H-pyrazol-5-yl)-4-(1-methylpiperidin-4-yl)benzamide], the IC50 amounted to 0.003 µM at Fyn and 1.42 µM with NF-kB.
Take `O=C(Nc1ccc(Cl)c(CCc2cc(Nc3cnccn3)[nH]n2)c1)c1cccc(C(F)(F)F)c1` [Compound 16, N-(4-chloro-3-(2-(5-(pyrazin-2-ylamino)-1H-pyrazol-3-yl)ethyl)phenyl)-3-(trifluoromethyl)benzamide]: the IC50 on VEGFR2 was less than 0.01 µM; at Fyn it was 0.024 µM; in the assay on NF-kB (Mus musculus, JB6 Cl 41-5a) it was 0.321 µM.
As for `Cc1nc(CN2CCCC2)cc(Nc2cc(CCc3cc(NC(=O)c4cccc(C(F)(F)F)c4)ccc3F)[nH]n2)n1` [Compound 28, N-(4-fluoro-3-(2-(3-((2-methyl-6-(pyrrolidin-1-ylmethyl)pyrimidin-4-yl)amino)-1H-pyrazol-5-yl)ethyl)phenyl)-3-(trifluoromethyl)benzamide], the IC50 at VEGFR2 is less than 0.01 µM; at Fyn, 0.017 µM.
For the compound `CCC1(CC)CCN(C(=O)Nc2ccc(C)c(CCc3cc(Nc4cnccn4)[nH]n3)c2)C1` [Compound 22, 3,3-diethyl-N-(4-methyl-3-(2-(5-(pyrazin-2-ylamino)-1H-pyrazol-3-yl)ethyl)phenyl)pyrrolidine-1-carboxamide], the IC50 on Fyn worked out at 0.007 µM; in the assay on NF-kB (Mus musculus, JB6 Cl 41-5a), 1.14 µM.
Taken in the same sequence, the figures for `Cc1ccc(NC(=O)NC2CCCC2)cc1CCc1cc(NC(=O)c2ccc(N3CCN(C)CC3)cc2)[nH]n1` [Compound 24, N-(3-(5-(3-cyclopentylureido)-2-methylphenethyl)-1H-pyrazol-5-yl)-4-(4-methylpiperazin-1-yl)benzamide] were 0.002 µM and 2.33 µM.
On to `Cc1ccc(NC(=O)c2ccnc(C(C)(C)C#N)c2)cc1CCc1cnc(Nc2cnccn2)s1` [Compound 50, 2-(2-cyanopropan-2-yl)-N-(4-methyl-3-(2-(2-(pyrazin-2-ylamino)thiazol-5-yl)ethyl)phenyl)isonicotinamide], for which the IC50 at Fyn was found to be 0.008 µM. Also, in the assay with NF-kB (Mus musculus, JB6 Cl 41-5a), the inhibition at 3 µM is 86%.
Taken in the same sequence, the figures for `CCC1(CC)CCN(C(=O)Nc2ccc(C)c(CCc3cc(Nc4nccnc4C)[nH]n3)c2)C1` [Compound 21, 3,3-diethyl-N-(4-methyl-3-(2-(5-((3-methylpyrazin-2-yl)amino)-1H-pyrazol-3-yl)ethyl)phenyl)pyrrolidine-1-carboxamide] were 0.005 µM and 37%.
In the case of `Cc1nc(CN2C[C@@H](C)O[C@@H](C)C2)cc(Nc2cc(CCc3cc(NC(=O)c4cccc(C(F)(F)F)c4)ccc3F)[nH]n2)n1` [Compound 27, N-(3-(2-(3-((6-(((2S,6R)-2,6-dimethylmorpholino)methyl)-2-methylpyrimidin-4-yl)amino)-1H-pyrazol-5-yl)ethyl)-4-fluorophenyl)-3-(trifluoromethyl)benzamide], the IC50 at VEGFR2 amounted to 0.012 µM; at Fyn it was 0.01 µM.
